According to patent publication US5120851A, “Preparation process for making water-soluble lysine salts of (+)2-(4-fluorophenyl)-alpha-methyl-5-benzoxazole acetic acid” (Euroresearch S.r.l., priority 1988, dated 1992):
Structures can show the parent of a compound that is named as a salt.

Key:
[1] = prior art statement; cited from earlier work
[2] = LD50 by the Litchfield-Wilcoxon method on mice, progressive oral doses; conditions: mouse, in vivo
Description: (§1) The LD50 was determined by the Litchfield-Wilcoxon method on mice using progressive oral doses. […] The paw volume is checked 2, 4 and 6 hours after inoculating the carrageen.

[3] = cited from earlier work
[4] = tested on: experimental edema induced by carrageen in a rat's paw; experiment: experimental edema induced by carrageen in a rat's paw; assay type: in vivo, rat (Sprague Dawley--Charles River); conditions: for TI (therapeutic index) LD50 /ED50: LD50 mice oral / ED50 rat paw edema; for ED50: Rattus norvegicus, rat paw carrageen edema, dosed 60 minutes before carrageen, paw volume at 2, 4 and 6 hours
Description: as §1

[5] = water-solubility at 20° C.; assay type: physicochemical

## C[C@H](C(=O)O)c1ccc2oc(-c3ccc(F)cc3)nc2c1 [Flunoxaprofen, (+)2-(4-fluorophenyl)-alpha-methyl-5-benzoxazole acetic acid]
[1]
  water-solubility: very limited
[2]
  LD50: 724 mg/kg
[3]; Italian patent No. 1,080,779
  activity of the dextrorotatory form: particularly active
[3]; J. Medic. Chem. 1975, vol 18, No. 1, pp 53-58
  anti-inflammatory, analgesic and antipyretic activity: considerable anti-inflammatory, analgesic and antipyretic activity
[4]
  TI (therapeutic index) LD50 /ED50: 121.18
  ED50: 5.97 mg/kg

## O=C(O)Cc1ccccc1Nc1c(Cl)cccc1Cl [Diclofenac]
[4]
  ED50: 10 mg/kg

## C[C@H](C(=O)O)c1ccc2oc(-c3ccc(F)cc3)nc2c1 [Example 2]
[5]; compared with Example 1
  water-solubility (in words): as in Example 1

## C[C@H](C(=O)O)c1ccc2oc(-c3ccc(F)cc3)nc2c1 (racemic) [Example 1, salt of (+)2-(4-fluorophenyl)-alpha-methyl-5-benzoxazole acetic acid with DL-lysine]
[2]; expressed as flunoxaprofen
  LD50: 720 mg/kg
[4]; listed as Salt of flunoxaprofen with DL-lysine
  TI (therapeutic index) LD50 /ED50: 129.96
[4]; expressed as flunoxaprofen
  ED50: 5.54 mg/kg
[5]; water
  solubility: 1000 mg/mL
